Experimental data published in the NIST ThermoML archive (doi:10.1021/acs.jced.9b00074).
Numbers after ± are expanded uncertainties.

Assay: xn = mol fraction of the nth substance listed
Conditions: 100 kPa, Liquid; for mass density: Vibrating tube method; for viscosity: Falling or rolling sphere viscometry

CC12CC3CC(C1)CC(C)(C3)C2 [1,3-dimethyladamantane] + OC1CCCC1
Conditions	mass density, 313.15 K [kg/m3]	mass density, 318.15 K [kg/m3]	mass density, 323.15 K [kg/m3]	mass density, 328.15 K [kg/m3]	mass density, 333.15 K [kg/m3]	viscosity, 318.15 K [mPa·s]	viscosity, 323.15 K [mPa·s]	viscosity, 328.15 K [mPa·s]	viscosity, 333.15 K [mPa·s]
x2 = 0.0963	889.12 ± 0.54	885.4 ± 0.54	881.66 ± 0.53	877.91 ± 0.53	874.14 ± 0.53	2.222 ± 0.047	2.018 ± 0.043	1.841 ± 0.039	1.686 ± 0.036
x2 = 0.1973	891.91 ± 0.54	888.1 ± 0.54	884.27 ± 0.54	880.42 ± 0.53	876.55 ± 0.53	2.307 ± 0.049	2.083 ± 0.044	1.893 ± 0.04	1.724 ± 0.037
x2 = 0.3101	895.47 ± 0.54	891.59 ± 0.54	887.67 ± 0.54	883.74 ± 0.54	879.77 ± 0.53	2.447 ± 0.052	2.199 ± 0.047	1.984 ± 0.042	1.797 ± 0.038
x2 = 0.4019	898.8 ± 0.54	894.85 ± 0.54	890.88 ± 0.54	886.87 ± 0.54	882.83 ± 0.54	2.595 ± 0.055	2.32 ± 0.049	2.082 ± 0.044	1.877 ± 0.04
x2 = 0.4995	902.71 ± 0.55	898.7 ± 0.54	894.66 ± 0.54	890.58 ± 0.54	886.46 ± 0.54	2.801 ± 0.06	2.485 ± 0.053	2.217 ± 0.047	1.987 ± 0.042
x2 = 0.5999	907.24 ± 0.55	903.16 ± 0.55	899.04 ± 0.54	894.89 ± 0.54	890.7 ± 0.54	3.048 ± 0.065	2.681 ± 0.057	2.376 ± 0.05	2.116 ± 0.045
x2 = 0.6997	912.35 ± 0.55	908.21 ± 0.55	904.03 ± 0.55	899.81 ± 0.54	895.55 ± 0.54	3.368 ± 0.072	2.935 ± 0.062	2.576 ± 0.055	2.275 ± 0.048
x2 = 0.7976	917.88 ± 0.55	913.7 ± 0.55	909.47 ± 0.55	905.2 ± 0.55	900.88 ± 0.55	3.742 ± 0.079	3.234 ± 0.069	2.814 ± 0.06	2.469 ± 0.052
x2 = 0.9003	924.29 ± 0.56	920.09 ± 0.56	915.84 ± 0.55	911.54 ± 0.55	907.18 ± 0.55	4.179 ± 0.089	3.582 ± 0.076	3.093 ± 0.066	2.689 ± 0.057
